Experimental data: patent publication US6340670B1, “Acetal benzylmaltosides as inhibitors of smooth muscle cell proliferation” (American Home Products Corporation, priority 1998, dated 2002)
Read-outs that look alike come from different tables or passages of the source.

Tests used:
[1] = tested on: Porcine Smooth Muscle Cell; experiment: Effects of Compounds on Cell Proliferation Using 3H Thymidine Incorporation; type: cell-based; settings: serum/growth factor stimulated cells, 24-36 h incubation, read-out: Porcine Smooth Muscle Cell Antiproliferation IC50
Summary of the method: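 Early-passage (3-7) sub-confluent smooth muscle cells, serum-starved 24-48 h, were stimulated with growth factor or serum and treated with compound (1 to 100 μM, from 50% ethanol stock) for 24-36 h at 37° C. Proliferation by ^3H-thymidine incorporation into TCA-insoluble material, triplicate, relative to maximally stimulated cells (100%); given as IC50 or % inhibition.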

Molecule | melting point | IC50 ([1]; Sus scrofa) [nM] | IC50 [1] [nM]
O=C(OCC1OC(OCc2ccc(Cl)c([N+](=O)[O-])c2)C(O)C(O)C1OC1OC2COC(c3ccccc3)OC2C(O)C1O)c1cccnc1 (stereo not drawn) [Example 32, Nicotinic acid 6-(4-chloro-3-nitro-benzyloxy)-3-(7,8-dihydroxy-2-phenyl-hexahydro-pyrano[3,2-d][1,3]dioxin-6-yloxy)-4,5-dihydroxy-tetrahydro-pyran-2-ylmethyl ester] | > 105 °C (dec.) | 405 | –
COc1ccc(C(=O)OCC2OC(OCc3ccc(Cl)c(NC(C)=O)c3)C(O)C(O)C2OC2OC3COC(c4ccccc4)OC3C(O)C2O)cc1 (stereo not drawn) [Example 34, 4-Methoxy-benzoic acid 6-(3-acetylamino-4-chloro-benzyloxy)-3-(7,8-dihydroxy-2-phenyl-hexahydro-pyrano[3,2-d][1,3]dioxin-6-yloxy)-4,5-dihydroxy-tetrahydro-pyran-2-ylmethyl ester] | > 117 °C (dec.) | 61 | –
COc1ccc(C(=O)OCC2OC(OCc3ccc(Cl)c(NC(C)=O)c3)C(OC(C)=O)C(OC(C)=O)C2OC2OC3COC(c4ccccc4)OC3C(OC(C)=O)C2OC(C)=O)cc1 (stereo not drawn) [Example 35, 4-Methoxy-benzoic acid 4,5-diacetoxy-6-(3-acetylamino-4-chloro-benzyloxy)-3-(7,8-diacetoxy-2-phenyl-hexahydro-pyrano[3,2-d][1,3]dioxin-6-yloxy)-tetrahydro-pyran-2-ylmethyl ester] | > 110 °C (dec.) | 851 | –
CC(=O)Nc1cc(COC2OC(COC(=O)c3ccc(Cl)cc3)C(OC3OC4COC(c5ccccc5)OC4C(O)C3O)C(O)C2O)ccc1Cl (stereo not drawn) [Example 36, 4-Chloro-benzoic acid 6-(3-acetylamino-4-chloro-benzyloxy)-3-(7,8-dihydroxy-2-phenyl-hexahydro-pyrano[3,2-d][1,3]dioxin-6-yloxy)-4,5-dihydroxy-tetrahydro-pyran-2-ylmethyl ester] | > 113 °C (dec.) | 89 | –
CC(=O)Nc1cc(COC2OC(COC(=O)c3ccc(Cl)cc3)C(OC3OC4COC(c5ccccc5)OC4C(OC(C)=O)C3OC(C)=O)C(OC(C)=O)C2OC(C)=O)ccc1Cl (stereo not drawn) [Example 37, 4-Chloro-benzoic acid 4,5-diacetoxy-6-(3-acetylamino-4-chloro-benzyloxy)-3-(7,8-diacetoxy-2-phenyl-hexahydro-pyrano[3,2-d][1,3]dioxin-6-yloxy)-tetrahydro-pyran-2-ylmethyl ester] | 114 to 115 °C | 588 | –
CC(=O)Nc1cc(COC2OC(COC(=O)C(c3ccccc3)c3ccccc3)C(OC3OC4COC(c5ccccc5)OC4C(O)C3O)C(O)C2O)ccc1Cl (stereo not drawn) [Example 50, Diphenyl-acetic acid 6-(3-acetylamino-4-chloro-benzyloxy)-3-(7,8-dihydroxy-2-phenyl-hexahydro-pyrano[3,2-d][1,3]dioxin-6-yloxy)-4,5-dihydroxy-tetrahydro-pyran-2-ylmethyl ester] | > 106 °C (dec.) | 84 | –
CC(=O)Nc1cc(COC2OC(COC(=O)C(c3ccccc3)c3ccccc3)C(OC3OC4COC(c5ccccc5)OC4C(OC(C)=O)C3OC(C)=O)C(OC(C)=O)C2OC(C)=O)ccc1Cl (stereo not drawn) [Example 51, Diphenyl-acetic acid 4,5-diacetoxy-6-(3-acetylamino-4-chloro-benzyloxy)-3-(7,8-diacetoxy-2-phenyl-hexahydro-pyrano[3,2-d][1,3]dioxin-6-yloxy)-tetrahydro-pyran-2-ylmethyl ester] | > 99 °C (dec.) | 354 | –
COc1ccc(CC(=O)OCC2OC(OCc3ccc(Cl)c(NC(C)=O)c3)C(O)C(O)C2OC2OC3COC(c4ccccc4)OC3C(O)C2O)cc1OC (stereo not drawn) [Example 52, (3,4-Dimethoxy-phenyl)-acetic acid 6-(3-acetylamino-4-chloro-benzyloxy)-3-(7,8-dihydroxy-2-phenyl-hexahydro-pyrano[3,2-d][1,3]dioxin-6-yloxy)-4,5-dihydroxy-tetrahydro-pyran-2-ylmethyl ester] | > 116 °C (dec.) | 48 | –
COc1ccc(CC(=O)OCC2OC(OCc3ccc(Cl)c(NC(C)=O)c3)C(OC(C)=O)C(OC(C)=O)C2OC2OC3COC(c4ccccc4)OC3C(OC(C)=O)C2OC(C)=O)cc1OC (stereo not drawn) [Example 53, (3,4-Dimethoxy-phenyl)-acetic acid 4,5-diacetoxy-6-(3-acetylamino-4-chloro-benzyloxy)-3-(7,8-diacetoxy-2-phenyl-hexahydro-pyrano[3,2-d][1,3]dioxin-6-yloxy)-tetrahydro-pyran-2-ylmethyl ester] | > 98 °C (dec.) | 266 | –
CC(=O)Nc1cc(COC2OC(COC(=O)c3cccnc3)C(OC3OC4COC(c5ccccc5)OC4C(OC(C)=O)C3OC(C)=O)C(OC(C)=O)C2OC(C)=O)ccc1Cl (stereo not drawn) [Example 55, Nicotinic acid 4,5-diacetoxy-6-(3-acetylamino-4-chloro-benzyloxy)-3-(7,8-diacetoxy-2-phenyl-hexahydro-pyrano[3,2-d][1,3]dioxin-6-yloxy)-tetrahydro-pyran-2-ylmethyl ester] | > 112 °C (dec.) | 304 | –
O=C(OCC1OC(SCc2ccc(Cl)c([N+](=O)[O-])c2)C(O)C(O)C1OC1OC2COC(c3ccccc3)OC2C(O)C1O)c1ccccc1 [Example 87, (4-Chloro-3-nitro-benzyl) 6-O-benzoyl-4′,6′-O-benzoyl-4′,6′-O-benzylidene-1-thio-β-D-maltoside] | – | – | 31
Benzoic acid 6-(3-acetylamino-4-chloro-benzoyloxy)-3-(7,8-dihydroxy-2-pyridin-4-yl-hexahydro-pyrano[3,2-d][1,3]dioxin-6-yloxy)-4,5-dihydroxy-tetrahydro-pyran-2-ylmethyl ester [Example 23] | – | – | 3
N-{5-[(6-O-(3-Benzyl-1-oxo-propyl)-4′,6′-O-benzylidene-β-D-maltosyl)-oxy-methyl]-2-chloro-phenyl}-carbamic acid methyl ester [Example 82] | – | – | 352
N-{5-[(6-O-Benzyl-4′,6′-O-ethylidene-β-D-maltosyl)-oxy-methyl]-2-chloro-phenyl}-acetamide [Example 9] | – | – | 83
